Measured values from patent publication US20110098309A1, “METHODS OF INHIBITING THE FORMATION OF AMYLOID-BETA DIFFUSABLE LIGANDS USING ACYLHYDRAZIDE COMPOUNDS” (priority 2007, published 2011).

target: Aβ1-42 (Homo sapiens, UniProt P05067); experiment: FRET assay of Aβ1-42 oligomer (ADDL) assembly inhibition; type: biochemical; conditions: 0.2 μM FITC-Aβ(1-42) and 0.8 μM Aβ(1-42), 37° C., six concentrations from about 10 μM to about 0.03 μM
From the text: Fluorescence (or Förster) Resonance Energy Transfer (FRET) is a distance-dependent, non-radiative transfer of energy in which the de-excitation of one fluorophore (donor) is coupled to excitation of another fluorophore (acceptor). FRET occurs if (1) the quantum of energy emitted by a donor fluorophore corresponds to an acceptor fluorophore's excitation energy, (2) the orientations of donor and acceptor transition dipoles are nearly parallel and (3) the donor fluorescent emission spectrum overlaps the acceptor absorption spectrum.
In this assay, assembly of Aβ1-42 oligomer formation is monitored by FRET using N-terminal conjugates of fluorescein-Aβ1-42 as both the donor and acceptor fluorophore (fluorescein-fluorescein Ro˜45 Å). […] Inhibition of Aβ1-42 assembly is observed as the absence or attenuation of fluorescein quenching.
FRET and FP assays are performed in 384-well Corning Non-Binding Surface, black, opaque microtiter plates, and the assay buffer consists of 25 mM MOPS-Tris (pH 8.0) with 100 mM MgCl2. The assay volume, containing 0.2 μM FITC-Aβ(1-42) and 0.8 μM Aβ(1-42), is 50 μl and the temperature is 37° C. […] Kinetic traces are collected by recording fluorescence intensity and polarization readings every five minutes over about a three hour time course. […] Positive control reactions contain all buffer components in the absence of added small molecule or antibody reagents. To test for ADDL assembly inhibition, the compound was incubated with the peptide mixture at six concentrations from about 10 μM decreasing to about 0.03 μM.

Chain of Aβ1-42 (P05067 672-713 limits assumed): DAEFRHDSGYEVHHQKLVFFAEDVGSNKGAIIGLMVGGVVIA

Row | IC50 [µM] | SMILES
1 | 28.3 | O=C(C/C(=N/NC(=O)c1[nH]c2ccccc2c1Cl)C(F)(F)F)c1cccs1 [Compound 30, 3-chloro-N′-(1,1,1-trifluoro-4-oxo-4-(thiophen-2-yl)butan-2-ylidene)-1H-indole-2-carbohydrazide]
2 | 30.2 | O=C(C/C(=N\NC(=O)c1sc2cc(F)ccc2c1Cl)C(F)(F)F)c1ccco1 [Compound 31, 3-chloro-6-fluoro-N′-(1,1,1-trifluoro-4-(furan-2-yl)-4-oxobulan-2-ylidene)benzo[b]thiophene-2-carbohydrazide]
3 | 35 | C/C(CC(N)=O)=N\NC(=O)c1ccccc1O [Compound 32, 3-(2-(2-hydroxybenzoyl)hydrazono)butanamide]
4 | 40.8 | Cc1ccc(C(=O)N/N=C(/CC(=O)c2cccs2)C(F)(F)F)cc1 [Compound 33, 4-methyl-N′-(1,1,1-trifluoro-4-oxo-4-(thiophen-2-yl)butan-2-ylidene)benzohydrazide]
5 | 40.9 | O=C(C/C(=N/NC(=O)c1cnn(-c2ccccc2)c1C(F)(F)F)C(F)(F)F)c1cccs1 [Compound 34, 1-phenyl-N′-(1,1,1-trifluoro-4-oxo-4-(thiophen-2-yl)butan-2-ylidene)-5-(trifluoromethyl)-1H-pyrazole-4-carbohydrazide]
6 | 41.2 | O=C(C/C(=N/NC(=O)c1c(F)cccc1F)C(F)(F)F)c1cccs1 [Compound 35, 2,6-difluoro-N′-(1,1,1-trifluoro-4-oxo-4-(thiophen-2-yl)butan-2-ylidene)benzohydrazide]
7 | 1 | COc1ccc(O)c(/C=N/NC(=O)c2ccc(-n3cccc3)cc2O)c1 [Compound 36, 2-hydroxy-N′-(2-hydroxy-5-methoxy-benzylidene)-4-(1H-pyrrol-1-yl) benzohydrazide]
8 | 1.2 | COc1ccc(O)c(/C=N/NC(=O)c2cc3ccccc3cc2O)c1 [Compound 37, 3-hydroxy-N′-(2-hydroxy-5-methoxy-benzylidene)-2-naphtho hydrazide]
9 | 1.2 | COc1ccc(O)c(/C=N/NC(=O)c2ccc3ccccc3c2O)c1 [Compound 38, 1-hydroxy-N′-(2-hydroxy-5-methoxybenzylidene)-2-naphtho-hydrazide]
10 | 1.6 | O=C(N/N=C/c1cc(Br)cc(I)c1O)c1cccc(F)c1 [Compound 39, N′-(5-bromo-2-hydroxy-3-iodobenzylidene)-3-fluoro-benzohydrazide]
11 | 2.1 | O=C(N/N=C/c1cc(F)cc(Cl)c1O)c1ccccc1O [Compound 40, N′-(3-chloro-5-fluoro-2-hydroxybenzylidene)-2-hydroxy-benzohydrazide]
12 | 2.3 | O=C(N/N=C/c1c(O)cccc1O)c1ccccc1O [Compound 41, N′-(2,6-dihydroxybenzylidene)-2-hydroxy benzohydrazide]
13 | 2.8 | O=C(N/N=C/c1cc(Br)cc(Br)c1O)c1ccccc1O [Compound 42, N′-(3,5-dibromo-2-hydroxybenzylidene)-2-hydroxybenzohydrazide]
14 | 3.2 | O=C(N/N=C/c1c(O)ccc2ccccc12)c1ccccc1NS(=O)(=O)c1ccc(Cl)cc1 [Compound 43, 4-chloro-N-(2-(2-((2-hydroxynaphthalen-1-yl)methylene)hydrazinecarbonyl)phenyl) benzenesulfonamide]
15 | 3.2 | COc1ccc(O)c(/C=N/NC(=O)c2[nH]c3ccccc3c2Cl)c1 [Compound 44, 3-chloro-N′-(2-hydroxy-5-methoxybenzylidene)-1H-indole-2-carbohydrazide]
16 | 3.3 | O=C(N/N=C/c1c(O)cccc1Br)c1ccccc1O [Compound 45, N′-(2-bromo-6-hydroxybenzylidene)-2-hydroxybenzo-hydrazide]
17 | 3.3 | O=C(N/N=C/c1cc(C2CCCCC2)cc(Cl)c1O)c1ccccc1O [Compound 46, N′-(3-chloro-5-cyclohexyl-2-hydroxybenzylidene)-2-hydroxybenzo-hydrazide]
18 | 3.5 | CC(C)(C)c1ccc(O)c(/C=N/NC(=O)c2ccccc2O)c1 [Compound 47, N′-(5-tert-butyl-2-hydroxybenzylidene)-2-hydroxy-benzohydrazide]
19 | 3.7 | COc1cccc(-c2ccc(O)c(/C=N/NC(=O)c3ccccc3O)c2)c1 [Compound 48, 2-hydroxy-N′-((4-hydroxy-3′-methoxybiphenyl-3-yl)methylene) benzohydrazide]
20 | 3.8 | Cc1occc1C(=O)N/N=C/c1cc(Br)cc(Br)c1O [Compound 49, N′-(3,5-dibromo-2-hydroxy-benzylidene)-2-methylfuran-3-carbohydrazide]
21 | 4.1 | O=C(N/N=C/c1cc(Br)ccc1O)c1ccccc1O [Compound 50, N′-(5-bromo-2-hydroxy-benzylidene)-2-hydroxybenzohydrazide]

Row | IC50 [µM] | SMILES
22 | 4.2 | COc1ccc(O)c(/C=N/NC(=O)c2ccc(Cl)cc2O)c1 [Compound 51, 4-chloro-2-hydroxy-N′-(2-hydroxy-5-methoxy-benzylidene)benzohydrazide]
23 | 4.2 | COc1ccc(O)c(/C=N/NC(=O)c2cccc3c2NC(=O)C3)c1 [Compound 52, N′-(2-hydroxy-5-methoxy-benzylidene)-2-oxoindoline-7-carbohydrazide]
24 | 4.6 | Cc1ccc(C(=O)N/N=C/c2cccc(C)c2O)cn1 [Compound 53, N′-(2-hydroxy-3-methyl-benzylidene)-6-methylnicotino-hydrazide]
25 | 5 | Cn1cc(I)c(C(=O)N/N=C/c2c(O)ccc3ccccc23)n1 [Compound 54, N′-((2-hydroxy-naphthalen-1-yl)methylene)-4-iodo-1-methyl-1H-pyrazole-3-carbohydrazide]
26 | 5.3 | COc1cccc(O)c1/C=N/NC(=O)c1ccccc1O [Compound 55, 2-hydroxy-N′-(2-hydroxy-6-methoxy-benzylidene)benzohydrazide]
27 | 6.1 | COc1ccc(O)c(/C=N/NC(=O)c2ccc(-n3c(C)ccc3C)cc2)c1 [Compound 56, 4-(2,5-dimethyl-1H-pyrrol-1-yl)-N′-(2-hydroxy-5-methoxy-benzylidene) benzohydrazide]
28 | 6.3 | O=C(N/N=C/c1cc(OC(F)(F)F)ccc1O)c1ccccc1O [Compound 57, 2-hydroxy-N′-(2-hydroxy-5-(trifluoro-methoxy)benzylidene)benzohydrazide]
29 | 6.4 | COc1ccc(O)c(/C=N/NC(=O)c2cccc3cc[nH]c23)c1 [Compound 58, N′-(2-hydroxy-5-methoxy-benzylidene)-1H-indole-7-carbohydrazide]
30 | 6.5 | O=C(N/N=C/c1cc(Cl)ccc1O)c1ccccc1O [Compound 59, N′-(5-chloro-2-hydroxy-benzylidene)-2-hydroxy-benzohydrazide]
31 | 6.5 | C=CCc1cccc(/C=N/NC(=O)c2ccc(I)cc2)c1O [Compound 60, N′-(3-allyl-2-hydroxy-benzylidene)-4-iodo-benzohydrazide]
32 | 6.7 | O=C(N/N=C/c1c(O)ccc2ccccc12)c1sc2cc(F)ccc2c1Cl [Compound 61, 3-chloro-6-fluoro-N′-((2-hydroxynaphthalen-1-yl)methylene) benzo[b]thiophene-2-carbohydrazide]
33 | 6.7 | O=C(N/N=C/c1ccc(O)cc1O)c1ccccc1NS(=O)(=O)c1ccc(Cl)cc1 [Compound 62, 4-chloro-N-(2-(2-(2,4-dihydroxy-benzylidene)hydrazine-carbonyl)phenyl)benzene-sulfonamide]
34 | 7 | COc1ccc(O)c(/C=N/NC(=O)c2cccc(C)c2O)c1 [Compound 63, 2-hydroxy-N′-(2-hydroxy-5-methoxy-benzylidene)-3-methyl-benzohydrazide]
35 | 7.1 | NC(=O)c1ccccc1/C=N/NC(=O)c1ccccc1O [Compound 64, 2-((2-(2-hydroxybenzoyl)hydrazono)methyl)benzamide]
36 | 7.5 | Nc1ccc(Cl)cc1/C=N/NC(=O)c1ccccc1O [Compound 65, N′-(2-amino-5-chloro-benzylidene)-2-hydroxy-benzohydrazide]
37 | 7.7 | COc1ccc(O)c(/C=N/NC(=O)c2c(O)ccc3ccccc23)c1 [Compound 66, 2-hydroxy-N′-(2-hydroxy-5-methoxy-benzylidene)-1-naphtho-hydrazide]
38 | 8.3 | COc1ccc(O)c(/C=N/NC(=O)c2ccc(F)cc2O)c1 [Compound 67, 4-fluoro-2-hydroxy-N′-(2-hydroxy-5-methoxy-benzylidene)benzohydrazide]
39 | 9.2 | Cc1ccc(O)c(/C=N/NC(=O)c2ccccc2O)c1 [Compound 68, 2-hydroxy-N′-(2-hydroxy-5-methyl-benzylidene)benzohydrazide]
40 | 9.2 | O=C(N/N=C/c1cc(Cl)cc(Cl)c1O)c1ccccc1O [Compound 69, N′-(3,5-dichloro-2-hydroxy-benzylidene)-2-hydroxy-benzohydrazide]
41 | 9.4 | COc1ccc(O)c(/C=N/NC(=O)c2scc(C)c2Cl)c1 [Compound 70, 3-chloro-N′-(2-hydroxy-5-methoxy-benzylidene)-4-methylthiophene-2-carbohydrazide]
42 | 9.7 | COc1ccc(O)c(/C=N/NC(=O)c2ccccc2NS(=O)(=O)c2ccc(Cl)cc2)c1 [Compound 71, 4-chloro-N-(2-(2-(2-hydroxy-5-methoxy-benzylidene)hydrazine-carbonyl)phenyl)benzene-sulfonamide]
